Literature values, collected in patent US5827842A, “14α, 17α-C2 -bridged norprogesterone derivatives” (Schering Aktiengesellschaft, priority 1994, dated 1998).

Tested on: endometrium

## CC(=O)[C@]12CC[C@@]3(CC1)[C@@H]1CCC4=CC(=O)CC[C@@H]4[C@H]1CC[C@]23C [14,17-Ethano-19-norpregn-4-ene-3,20-dione]
J. Med. Chem. 16, 270 (1973)
  factor between subcutaneous and peroral action: over 20
Oral administration
  gestagenic action in the Clauberg Test after oral administration: only a slight effect
Subcutaneous administration
  gestagenic action in the Clauberg Test after subcutaneous administration: good effect
